The assay addresses tau (Homo sapiens, UniProt P10636). Kind of assay: MCE Phenols Library screening, tau biosensor cell seeding assay (AvZ). The assay is classed as cell-based. As to conditions: for AvZ (average z score of seeding, SDs from the mean level of seeding): 10 μM phenol in cell cultures, AD brain homogenate preincubated 16 hours, two biological replicates, positive = catalyzes seeding, negative = inhibits; for Z repl 1 / Z Repl 2: Z score; for Z repl 1 / raw data 1: replicate 1; for Z Repl 2 / raw data 2: replicate 2.

Setting [1] is: average Z score of the two replicates, tau seeding.
[2] abbreviates: average Z score of two replicates, Phenols Library screen.
[3] abbreviates: average Z score of the two replicates, MCE Phenols Library screen.
Where [4] appears, read: average puncta of the two replicates.

Sequence of tau (P10636 623-695 limits assumed): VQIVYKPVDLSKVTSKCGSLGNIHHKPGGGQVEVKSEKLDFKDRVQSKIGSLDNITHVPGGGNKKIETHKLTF

Take `CC(=O)c1ccc(O)c(C)c1` [4'-Hydroxy-3'-methylacetophenone]: the “AvZ (average z score of seeding, SDs from the mean level of seeding)” value (from here on “AvZ”) is -0.112; the “Z repl 1” value is reported as 0.035; the “Z Repl 2” value is recorded as -0.259. Besides, the av puncta (average of raw data 1 and 2) was found to be 18387.5. Further, under “puncta”, the “raw data 1” value turned out to be 26771.9 and the “raw data 2” value is on record as 10003.1.
As for `O=C(/C=C/c1ccccc1)c1ccc(O)cc1` [4'-Hydroxychalcone], the “Z repl 1” value worked out at 0.138 and the “Z Repl 2” value was 0.314. For the same compound, under setting [1], the “av Z” value is given as 0.226. Under “average of raw data 1 and 2”, this compound yielded an av puncta of 22065.5. Under “puncta”, the “raw data 1” value is given as 28009.6 and the “raw data 2” value was 16121.4.
As to `COc1ccc(/C=C/c2cc(O)cc(O)c2)cc1` [4'-Methoxyresveratrol], the “Z repl 1” value came out at 0.613 and the “Z Repl 2” value came out at 0.599. Moreover, under setting [1], the “av Z” value was found to be 0.606. Besides, the av puncta (average of raw data 1 and 2) is recorded as 26435.9. Under “puncta”, the “raw data 1” value came out at 33711.1 and the “raw data 2” value was found to be 19160.7.
Take `COc1cc(O)c(C(=O)/C=C/c2ccc(O)cc2)cc1CC=C(C)C` [4'-O-Methylbavachalcone]: the “Z repl 1” value was -0.312 and the “Z Repl 2” value stood at 0.23. For the same compound, under setting [2], the “av Z” value is given as -0.041. The same compound gave an av puncta (average of raw data 1 and 2) of 18915.2. Moreover, for the setting “puncta”, the “raw data 1” value was found to be 22607.8 and the “raw data 2” value stood at 15222.5.
In the case of `O=C(C=Cc1ccc(O)c(O)c1)OC1CC(O)(C(=O)O)CC(O)C1OC(=O)C=Cc1ccc(O)c(O)c1` (stereo not shown) [4,5-Dicaffeoylquinic acid], the “Z repl 1” value is -1.017 and the “Z Repl 2” value is reported as -0.252. Moreover, under setting [3], the “av Z” value is -0.635. Also, the av puncta under setting [4] was 12104.8. In addition, for the setting “puncta”, the “raw data 1” value was determined as 14137.8 and the “raw data 2” value stood at 10071.7.
`OCC(O)c1ccc(O)c(O)c1` (stereo not shown) [4-(1,2-Dihydroxyethyl)benzene-1,2-diol]: the “AvZ” value is on record as -0.242; the “Z repl 1” value was -0.442; the “Z Repl 2” value is on record as -0.042. Under setting [4], the av puncta was 16682.4. For the setting “raw puncta”, the “raw data 1” value is 21044.7 and the “raw data 2” value stood at 12320.1.
As to `C=CCc1ccc(O)c(O)c1` [4-Allylcatechol], the “AvZ” value is -0.761; the “Z repl 1” value was -0.394; the “Z Repl 2” value is on record as -1.127. The compound also yielded an av puncta (average of raw data 1 and 2) of 11173.7. For the same compound, where the note is “puncta”, the “raw data 1” value was 21621.8 and the “raw data 2” value is 725.499.
On to `CCc1ccc(O)cc1O` [4-Ethylresorcinol], for which the “AvZ” value is -1.119; the “Z repl 1” value is -1.505; the “Z Repl 2” value is -0.734. Moreover, the av puncta (average of raw data 1 and 2) came out at 6604.27. Moreover, under “puncta”, the “raw data 1” value is recorded as 8283.51 and the “raw data 2” value was 4925.02.
`COc1cc(/C=C/C(=O)O[C@H]2[C@H](O)C[C@](O)(C(=O)O)C[C@H]2O)ccc1O` [4-Feruloylquinic acid]: the “Z repl 1” value is reported as -1.622 and the “Z Repl 2” value is reported as -0.646. Also, the “av Z” value under setting [3] is given as -1.134. Moreover, the av puncta (average of raw data 1 and 2) is reported as 6372.47. In addition, where the note is “puncta”, the “raw data 1” value amounted to 6875.06 and the “raw data 2” value was 5869.87.
As to `O=Cc1c[nH]c2cccc(O)c12` [4-Hydroxy-1H-indole-3-carbaldehyde], the “AvZ” value is listed as 0.212; the “Z repl 1” value came out at 0.51; the “Z Repl 2” value is given as -0.086. Also, the av puncta (average of raw data 1 and 2) was found to be 22163.8. Also, for the setting “puncta”, the “raw data 1” value was 32475.1 and the “raw data 2” value turned out to be 11852.6.
As to `O=C(O)c1ccc(O)cc1` [4-Hydroxybenzoic acid], the “AvZ” value is -0.554; the “Z repl 1” value is listed as -0.323; the “Z Repl 2” value was -0.785. The compound further displayed an av puncta under setting [4] of 13431. Under “puncta”, the “raw data 1” value was 22475.3 and the “raw data 2” value turned out to be 4386.59.
Take `N#CCc1ccc(O)cc1` [4-Hydroxybenzyl cyanide]: the “AvZ” value is given as -0.064; the “Z repl 1” value was 0.423; the “Z Repl 2” value was -0.552. The compound also came in with an av puncta (average of raw data 1 and 2) of 19148.8. Also, under “puncta”, the “raw data 1” value stood at 31425.1 and the “raw data 2” value is listed as 6872.51.
With `NCc1ccc(O)cc1` [4-Hydroxybenzylamine], the “AvZ” value is given as -0.572; the “Z repl 1” value is reported as -0.693; the “Z Repl 2” value is given as -0.451. The compound further gave an av puncta under setting [4] of 12984.9. Under “puncta”, the “raw data 1” value came to 18024.8 and the “raw data 2” value is recorded as 7945.11.
Consider `O=C(/C=C/c1ccc(O)cc1)c1ccccc1` [4-Hydroxychalcone], for which the “Z repl 1” value was -0.784 and the “Z Repl 2” value is given as -0.093. The “av Z” value under setting [3] is reported as -0.439. For the same compound, the av puncta under setting [4] is 14353.6. Also, where the note is “raw puncta”, the “raw data 1” value was 16932.9 and the “raw data 2” value worked out at 11774.3.
In the case of `CCC1(c2ccc(O)cc2)NC(=O)N(C)C1=O` (stereo not shown) [4-Hydroxymephenytoin], the “Z repl 1” value was -0.081 and the “Z Repl 2” value was -0.754. Moreover, under setting [3], the “av Z” value is recorded as -0.418. This compound also returned an av puncta under setting [4] of 15044.9. Under “raw puncta”, the “raw data 1” value is 25375.4 and the “raw data 2” value is recorded as 4714.28.
`CC(=O)OCCc1ccc(O)c(O)c1` [4-Hydroxytyrosol acetate]: the “AvZ” value is -0.526.
Consider `COc1ccc(C=O)cc1` [4-Methoxybenzaldehyde], for which the “AvZ” value is 0.308; the “Z repl 1” value is on record as -0.17; the “Z Repl 2” value was 0.786. Also, the av puncta (average of raw data 1 and 2) was determined as 22737.8. Also, where the note is “puncta”, the “raw data 1” value turned out to be 24311 and the “raw data 2” value was determined as 21164.6.
For the compound `Cc1ccc(O)c(O)c1` [4-Methylcatechol], the “AvZ” value is given as -1.257; the “Z repl 1” value is -1.54; the “Z Repl 2” value is given as -0.975. The av puncta (average of raw data 1 and 2) was found to be 5109.52. Further, under “puncta”, the “raw data 1” value was 7864.83 and the “raw data 2” value amounted to 2354.22.
Consider `Cc1cc(=O)oc2c(O)c(O)ccc12` [4-Methyldaphnetin], for which the “Z repl 1” value is reported as -1.037 and the “Z Repl 2” value was -0.74. The “av Z” value under setting [3] is given as -0.889. The compound further registered an av puncta (average of raw data 1 and 2) of 9377.72. Moreover, for the setting “puncta”, the “raw data 1” value is 13895.3 and the “raw data 2” value was 4860.11.
Regarding `Cc1cc(=O)oc2cc(O)c(O)cc12` [4-Methylesculetin], the “Z repl 1” value worked out at 0.302 and the “Z Repl 2” value is -0.022. Besides, the “av Z” value under setting [1] came to 0.14. The compound further returned an av puncta (average of raw data 1 and 2) of 21252.2. Further, where the note is “puncta”, the “raw data 1” value is listed as 29975.4 and the “raw data 2” value was found to be 12529.
On to `Cc1cc(=O)oc2cc(O)ccc12` [4-Methylumbelliferone], for which the “Z repl 1” value is recorded as -0.898 and the “Z Repl 2” value is -0.379. Moreover, the “av Z” value under setting [3] was -0.639. Also, under setting [4], the av puncta is on record as 12140.1. Where the note is “puncta”, the “raw data 1” value is 15562.7 and the “raw data 2” value was found to be 8717.47.
With `CC(=O)c1ccc(O)cc1C` [4?-Hydroxy-2?-methylacetophenone], the “AvZ” value is reported as 0.123; the “Z repl 1” value came to 0.511; the “Z Repl 2” value is -0.266. In addition, under “average of raw data 1 and 2”, the av puncta is on record as 21207.9. Further, under “puncta”, the “raw data 1” value came to 32488.1 and the “raw data 2” value was 9927.81.
For `Oc1cc2cc[nH]c2cc1O` [5,6-Dihydroxyindole], the “AvZ” value is -0.59; the “Z repl 1” value is recorded as -0.206; the “Z Repl 2” value was -0.973. For the same compound, the av puncta under setting [4] was determined as 13123.8. Also, for the setting “puncta”, the “raw data 1” value stood at 23871.3 and the “raw data 2” value amounted to 2376.21.
As to `Cc1cc(=O)oc2cc(O)cc(O)c12` [5,7-Dihydroxy-4-methylcoumarin], the “Z repl 1” value is listed as 0.623 and the “Z Repl 2” value is given as -0.301. For the same compound, the “av Z” value under setting [1] was 0.161. Besides, where the note is “average of raw data 1 and 2”, the av puncta is recorded as 21685.4. Moreover, where the note is “puncta”, the “raw data 1” value amounted to 33822.8 and the “raw data 2” value worked out at 9548.03.
Consider `O=c1ccoc2cc(O)cc(O)c12` [5,7-Dihydroxychromone], for which the “Z repl 1” value is reported as -1.184 and the “Z Repl 2” value is reported as -0.309. Further, the “av Z” value under setting [3] is -0.746. Under setting [4], this compound yielded an av puncta of 10800.5. In addition, under “puncta”, the “raw data 1” value came out at 12131.6 and the “raw data 2” value amounted to 9469.43.
Regarding `COc1cc(OC)c2c(=O)cc(-c3ccc(O)c(O)c3)oc2c1` [5,7-Dimethoxyluteolin], the “Z repl 1” value was found to be 1.798 and the “Z Repl 2” value was 1.915. The “av Z” value (average Z score of the two replicates, tau biosensor seeding, MCE Phenols Library screen) is 1.856. The av puncta (average of raw data 1 and 2) is 40573.2. Moreover, under “puncta”, the “raw data 1” value worked out at 47932.5 and the “raw data 2” value came out at 33213.9.
On to `Nc1ccc(O)c(C(=O)O)c1` [5-Aminosalicylic Acid, reference compound], for which the “AvZ” value is given as -0.176; the “Z repl 1” value is on record as -0.552; the “Z Repl 2” value was 0.2. The same compound yielded an av puncta (average of raw data 1 and 2) of 17310.9. Also, under “puncta”, the “raw data 1” value turned out to be 19721.7 and the “raw data 2” value stood at 14900.2.
For `COc1ccc(-c2cc(=O)c3c(O)c(OC)c(OC)cc3o2)cc1OC` [5-Desmethylsinensetin], the “Z repl 1” value came to 0.14 and the “Z Repl 2” value was -0.394. Further, the “av Z” value under setting [2] is -0.127. The compound further registered an av puncta (average of raw data 1 and 2) of 18294. Where the note is “puncta”, the “raw data 1” value came to 28033.5 and the “raw data 2” value came to 8554.47.
